According to patent publication US20260242390A1, “TOTAL SYNTHESES OF PORTIMINE A AND ANALOGUES THEREOF AS SMALL MOLECULE MODULATORS OF NMD3” (priority 2023, published 2026):

Tested on: shNMD3 Jurkat and HeLa cells
Test: Toxicity in NMD3 knock-down (shNMD3) cells
Format: cell-based, human
Conditions: Jurkat 12.5 nM 12 or 24 hours; Jurkat and HeLa 5 nM or 150 nM 24 hours
Procedure: FIG. 7. Portimine A targets NMD3 and prevents polysome formation. […] (A) Immunoblot showing reduced NMD3 levels in shNMD3 Jurkat and HeLa cells. […] Jurkat cells were treated with 12.5 nM of PA for 12 or 24 hours. Jurkat and HeLa cells were treated with 5 nM or 150 nM of PA for 24 hours. Data represents mean±SD of biologically replicated experiments (n=3). […] Cell lysates were fractionated by sucrose gradient (5-50%) and each fraction were analyzed by western blot. eIF6 levels increase in 60S subunit fraction and decrease in ribosome-free fractions after PA treatment. RPS6, a 40S and polysome subunits marker, is decreased in polysome fractions after PA treatment. Results are representative of three independent experiments. […] Relative protein levels in each fraction were normalized to the peak fraction of the indicated protein from the DMSO cells and plotted. Data represents mean±SD of biologically replicated experiments (n=3). Statistical analysis was performed using multiple unpaired Student t-test. * p≤0.05; ** p≤0.01; *** p≤0.005; **** p≤0.0001. Treatment condition: Jurkat (5 M per condition); Incubate cells (1 M/mL) with inhibitors for 6 hr, 12 hr and 24 hr, respectively.
• 1) Portimine A and its functional analogs show stereo-selective acute toxicity in cancer cells (FIG. 1). […] (B) Structure of portimine related analogs: phenyl-portimine A (Ph-PA, 36) and epi-portimine A (ePA, 38). […]

For `C=CC1=C[C@@H]2[C@@H]3O[C@]4(CC[C@H](O4)C(C)C[C@@H](O)C3=O)CC(O)C3=NCC[C@@]32CC1` (stereo partly shown) [PA, portimine A], the “toxic effects in shNMD3 compared to shCtrl cells” value was “less toxic effects”.
